What was measured:
HIV-1 (strain IIIB) = assay: MT4 cell assay, antiviral HIV activity (propidium iodide); assay type: cell-based; conditions: Human immunodeficiency virus 1, IIIB; Virus Type HIV-1; Assay MT4; read-out: IC50 (nM) Range
Description: Antiviral HIV activity and compound-induced cytotoxicity were measured in parallel by means of a propidium iodide based procedure in the human T-cell lymphotropic virus transformed cell line MT4. Aliquots of the test compounds were serially diluted in medium (RPMI 1640, 10% fetal calf serum (FCS), and gentamycin) in 96-well plates (Costar 3598) using a Cetus Pro/Pette. Exponentially growing MT4 cells were harvested and centrifuged at 1000 rpm for 10 min in a Jouan centrifuge (model CR 4 12). Cell pellets were resuspended in fresh medium (RPMI 1640, 20% FCS, 20% IL-2, and gentamycin) to a density of 5×10^5 cells/ml. Cell aliquots were infected by the addition of HIV-1 (strain IIIB) diluted to give a viral multiplicity of infection of 100×TCID50. A similar cell aliquot was diluted with medium to provide a mock-infected control. Cell infection was allowed to proceed for 1 hr at 37° C. in a tissue culture incubator with humidified 5% CO2 atmosphere. After the 1 hr incubation the virus/cell suspensions were diluted 6-fold with fresh medium, and 125 μl of the cell suspension was added to each well of the plate containing pre-diluted compound. Plates were then placed in a tissue culture incubator with humidified 5% CO2 for 5 days. At the end of the incubation period, 27 μl of 5% Nonidet-40 was added to each well of the incubation plate. After thorough mixing with a Costar multitip pipetter, 60 μl of the mixture was transferred to filter-bottomed 96-well plates. The plates were analyzed in an automated assay instrument (Screen Machine, Idexx Laboratories). The control and standard used was 3′-azido-3′-deoxythymidine tested over a concentration range of 0.01 to 1 μM in every assay. […] The assay-makes use of a propidium iodide dye to estimate the DNA content of each well.
The antiviral effect of a test compound is reported as an IC50, i.e. the inhibitory concentration that would produce a 50% decrease in the HIV-induced cytopathic effect. This effect is measured by the amount of test compound required to restore 50% of the cell growth of HIV-infected MT4 cells, compared to uninfected MT4 cell controls. IC50 was calculated by RoboSage, Automated Curve Fitting Program, version 5.00, 10 Jul. 1995.
For each assay plate, the results (relative fluorescence units, rfU) of wells containing uninfected cells or infected cells with no compound were averaged, respectively. For measurements of compound-induced cytotoxicty, results from wells containing various compound concentrations and uninfected cells were compared to the average of uninfected cells without compound treatment. Percent of cells remaining is determined by the following formula: Percent of cells remaining=(compound−treated uninfected cells, rfU/untreated uninfected cells)×100.
A level of percent of cells remaining of 79% or less indicates a significant level of direct compound-induced cytotoxicity for the compound at that concentration. When this condition occurs the results from the compound-treated infected wells at this concentration are not included in the calculation of IC50.
For measurements of compound antiviral activity, results from wells containing various compound concentrations and infected cells are compared to the average of uninfected and infected cells without compound treatment. Percent inhibition of virus is determined by the following formula: Percent inhibition of virus=(1−((ave. untreated uninfected cells−treated infected cells)/(ave. untreated uninfected cells−ave. untreated infected cells)))×100

WTRVA = assay: HeLa cell assay (HIV-LTR β-galactosidase reporter); assay type: cell-based, HIV-1; conditions: Human immunodeficiency virus 1, Virus Type WTRVA, read-out: IC50 (nM) Range
Description: The HeLa cell assay was performed according to a modification of Kimpton J. and Emerman M., Detection of replication-competent and pseudotyped human immunodeficiency virus with a sensitive cell line on the basis of activation of an integrated β-galactosidase gene, J. Virol. 66:2232-2239 (1992), in which HIV-1 infection is detected by the activation of an HIV-LTR driven β-galactosidase reporter that is integrated into the genome of a CD4^+ HeLa cell line. Quantitation of β-galactosidase is achieved by measuring the activation of a chemiluminescent substrate (Tropix). The concentration of each compound required to inhibit 50% (IC50) of the HIV-1 induced β-galactosidase signal, relative to untreated controls, was determined for each isogenic, recombinant virus.
HeLa-CD4-LTR-β-gal cells were obtained from the NIH AIDS Research and Reference Reagent Program. Cells were propagated in DMEM containing 10% fetal bovine serum, 0.2 mg/ml geneticin and 0.1 mg/ml hygromycin B. Cells were routinely split by trypsinization when confluency reached 80% (approximately every 2 to 3 days).
DNA encoding the HIV-1 reverse transcriptase was subcloned from a M13 phage into a general shuttle vector, pBCSK+, as a ˜1.65 kbp EcoRI/HindIII ended DNA fragment. The HIV DNA insert of the resulting plasmid, pRT2, was completely sequenced on both strands prior to use in site directed mutagenesis experiments. Specific amino acid replacements were made using Stratagene Quick Change reagents and mutagenic oligonucleotides from Oligos. Following mutagenesis, the entire mutant RT coding sequence was verified by sequencing both DNA strands.
Mutant HIV-1 strains were isolated by a modified Recombinant Virus Assay (Kellam P. and Larder B., Recombinant virus assay: a rapid, phenotypic assay for assessment of drug susceptibility of human immunodeficiency virus type 1 isolates, Antimicrobial Agents and Chemotherapy, 38:23-30, 1994). 1×10^7 Jurkat T-cells (maintained in RPMI containing 10% fetal bovine serum, split 1:5 every 5 to 6 days) were co-transfected with EcoRI/HindIII digested mutant RT plasmid and Bst EII-digested HIV-1HXB2ΔRT DNA in the presence of DMRIE-C transfection reagent (Gibco) according to supplier's recommended protocol. Each mutant RT coding sequence was crossed into the RT-deleted HIV-1 viral DNA backbone by in vivo homologous recombination. Transfected cell cultures were expanded and monitored until syncitia formation and CPE were extensive. Virus was harvested by clear spin of the culture supernatants and frozen at −80 C as primary stock. Recombinant progeny virus was sequenced in the RT region to confirm the mutant genotype. Virus stocks were further expanded by infection of Jurkat cells, harvested and stored as frozen aliquots. Stocks were titered in HeLa MAGI cells for assay.
The HIV-1HXB2 mutants were titered in the HeLa MAGI assay system to determine the relative light units (RLU) per ml, a measure of infectivity relevant for this assay system. Virus stocks were diluted in a 2-fold series into DMEM containing 10% fetal bovine serum plus 20 ug/ml DEAE-dextran and assayed as described in the Experimental Protocol section, below.
96-well microtiter plate(s) (Costar #3598) were seeded with 3×10^3 HeLa-CD4-LTR-β-gal in 100 μl DMEM containing 10% fetal bovine serum. Plates were placed in a 37° C., 5% CO2 humidified incubator overnight. The following day, mutant virus stocks were thawed in a room temperature water bath and diluted into DMEM containing 10% fetal bovine serum and 20 μg/ml DEAE-dextran to achieve an input of 1500 to 2000 RLU/ml. All media was removed with an 8 channel manifold aspirator and 35 μl (50 to 70 total RLUs) of diluted virus was added to each well for virus adsorption. Plates were placed in a 37° C., 5% CO2 humidified incubator for 1.5 to 2 hours.
Compound titration plates were prepared at 1.35× final concentration during the virus adsorption period. […]

SMILES | IC50 (HIV-1 (strain IIIB)) [nM] | IC50 (WTRVA) [nM]
Cc1cc(C#N)cc(C(=O)c2cc(Cl)ccc2OCC(=O)Nc2ccc(S(N)(=O)=O)cc2C)c1 [Compound 564] | < 10 | < 10
Cc1cc(S(N)(=O)=O)ccc1NC(=O)COc1ccc(Cl)cc1C(=O)c1cccc(C#N)n1 [Compound 637] | < 10 | < 10
Cc1cc(S(N)(=O)=O)ccc1NC(=O)COc1ccc(Cl)cc1C(=O)c1cccc(C#N)c1 [Compound 448] | < 10 | –
Cc1cc2nc[nH]c2cc1NC(=O)COc1ccc(Cl)cc1C(=O)c1cc(F)cc(C(F)(F)F)c1 [Compound 239] | < 10 | < 10
Cc1cc(C#N)cc(C(=O)c2cc(Cl)ccc2OCC(=O)Nc2ccc(OCCCN3CC=CC3)cc2C)c1 [Compound 593] | < 10 | < 10
Cc1cc(C)cc(C(=O)c2cc(Cl)ccc2OCC(=O)Nc2ccc(S(N)(=O)=O)cc2C)c1 [Compound 478] | < 10 | < 10
Cc1cc(C#N)cc(C(=O)c2cc(Cl)ccc2OCC(=O)Nc2cnc(S(N)(=O)=O)cc2C)c1 [Compound 587] | < 10 | < 10
CCc1cc(C#N)cc(C(=O)c2cc(Cl)ccc2OCC(=O)Nc2ccc(S(N)(=O)=O)cc2C)c1 [Compound 498] | < 10 | < 10
Cc1cc(OCCCS(N)(=O)=O)ccc1NC(=O)COc1ccc(Cl)cc1C(=O)c1cc(F)cc(C(F)(F)F)c1 [Compound 257] | < 10 | < 10
Cc1cc2cn[nH]c2cc1NC(=O)COc1ccc(Cl)cc1C(=O)c1cccc(C#N)c1 [Compound 453] | < 10 | < 10
Cc1cc(S(N)(=O)=O)ccc1NC(=O)COc1ccc(Cl)cc1C(=O)c1cc(F)cc(C(F)(F)F)c1 [Compound 78] | < 10 | < 10
Cc1cc(S(N)(=O)=O)ccc1NC(=O)COc1ccc(Cl)cc1C(=O)c1cc(F)cc(F)c1 [Compound 62] | < 10 | < 10
Cc1cc(S(N)(=O)=O)ccc1NC(=O)COc1ccc(Cl)cc1C(=O)c1cc(F)cc(C#N)c1 [Compound 491] | < 10 | < 10
Cc1cc(C#N)cc(C(=O)c2cc(Cl)ccc2OCC(=O)Nc2ccc(S(N)(=O)=O)nc2C)c1 [Compound 503] | < 10 | < 10
Cc1cc(S(N)(=O)=O)ccc1NC(=O)COc1ccc(Cl)cc1C(=O)c1cc(Cl)cc(C#N)c1 [Compound 475] | < 10 | < 10

Reference: US7273863B1, “Benzophenones as inhibitors of reverse transcriptase” (SmithKline Beecham Corporation, priority 1999, dated 2007)
